# Experimental data from paper PMC12094020, “Elucidation of novel turnagainolides and their biosynthetic gene cluster in Bacillus subtilis” (Applied and Environmental Microbiology, 2025).
# Entries after “also recorded” stand apart in the source; their conditions may differ.
# Key:
# [1] = system: quorum-sensing in Staphylococcus aureus; details: ref 5 (Igarashi et al.); read-out: quorum-sensing inhibition in Staphylococcus aureus, IC50; cited from earlier work
# Text: (§1) Turnagainolides are a distinctive family of cyclic depsipeptides containing one (E)-3-hydroxy-5-phenylpent-4-enoic acid (Hppa) and four proteinogenic amino acids (Fig. S1). As the first member of this family, compound EGM-556 was discovered from the marine fungus Microascus sp. EGM-556 following the introduction of the histone deacetylase inhibitor suberoylanilide hydroxamic acid to activate a silent biosynthetic gene cluster. However, its stereochemistry was only partially resolved, and no bioactivity was reported ([3]). Subsequently, turnagainolides A and B were identified from Bacillus sp., ...
# [2] = system: S. aureus biofilm; assay: biofilm inhibition experiment (crystal violet); assay type: cell-based; details: overnight 37°C, TSB, OD570
# Protocol: S. aureus was cultured overnight in 3 mL of TSB medium. The next morning, the culture was diluted to an OD570 of 0.5 with fresh TSB medium and then further diluted 1,000-fold to achieve a final concentration of 1 × 10^6 CFU/mL. Aliquots of 100 µL of the diluted culture were transferred to individual wells of a 96-well plate. Test compounds were added to the first well of each row at a concentration of 800 µg/mL, followed by twofold serial dilutions across the row. The plate was incubated overnight at 37°C. The medium was subsequently discarded, and the wells were washed three times with PBS (KH2PO4 0.27 g, Na2HPO4 1.42 g, NaCl 8 g, KCl 0.2 g in 1 L deionized water, pH 7.4). Next, 200 µL of methanol was added to each well to fix the biofilm, and the plate was incubated for 15 minutes. The methanol was then removed, and the wells were stained with 0.1% crystal violet for 5 minutes. Excess dye was washed off, and the plate was air-dried. To dissolve the bound stain, 200 µL of glacial acetic acid was added to each well, and the plate was shaken for 20 minutes. The absorbance at OD570 was measured using a microplate reader (Thermo Fisher Scientific, Varioskan LUX).
# [3] = system: SHIP1 enzyme; details: in vitro; cited from earlier work
# Text: as §1, with “([3]).” for “([3]). Subsequently, turnagainolides A and B were identified from Bacillus sp., ...”
# [4] = system: Escherichia coli; details: cited from earlier work
# Text: as §1
# [5] = system: Candida albicans; details: cited from earlier work
# Text: as §1
# [6] = system: S. aureus; details: cited from earlier work
# Text: as §1
# [7] = system: bacteria; design: method as in doi:10.1016/j.cclet.2016.03.018; details: compared among congeners; cited from earlier work
Substance,IC50 [1],activation of SHIP1 enzyme [3],anti-biofilm activity at concentrations above 100 µg/mL [2],other results
Turnagainolide A [Compound 1],800 nM,only turnagainolide B activates SHIP1,,anti-biofilm activity at 200 µg/mL ([2]; 200 µg/mL): no activity; anti-biofilm activity at 400 µg/mL ([2]; 400 µg/mL): weak inhibitory activity
Turnagainolide B [Compound 2],,activates SHIP1; also recorded: activator of the SHIP1 enzyme,slightly stronger inhibition; also recorded: weak inhibition,
Turnagainolide D [Compound 3],,,slightly stronger inhibition; also recorded: weak inhibition,
arthroamide [reference compound],300 nM,,,
turnagainolide C,,,,anti-microbial activity against Escherichia coli [4]: anti-microbial activity; anti-microbial activity against Candida albicans [5]: anti-microbial activity; anti-microbial activity against S. aureus [6]: anti-microbial activity; antibacterial activity [7]: only congener that exhibits antibacterial activity
